In patent US10945427B2, “Trehalose and dextran-containing solution for transplanting mammalian cells” (OTSUKA PHARMACEUTICAL FACTORY, INC., priority 2013, dated 2021):

Test system: Human mesenchymal stem cells from bone marrow [hMSC-BM]
Experiment: Cell survival rate of hMSC-BM preserved in solution for cell transplantation (Trypan blue)
Type: cell-based
Details: hMSC-BM preserved for 14 days; saccharide-containing Lactec injection without trehalose or dextran
Procedure: Human mesenchymal stem cells from bone marrow [hMSC-BM] (from Lonza Co., Ltd.) were prepared according the procedures described in [1] to [8] below and used in the present experiment.
[1] hMSC-BM were cultured in a 5% CO2 incubator at 37° C. in the presence of a medium kit specific for human mesenchymal stem cells (from Lonza Co., Ltd.) (hereinafter referred to as “MSC medium”) using a 75-cm^2 flask. The state of the cells was observed under a microscope, and culture was performed until a confluent state of about 80% was reached.
[2] The […] was removed using an aspirator, and hMSC-BM were rinsed with 8 mL/flask of PBS (from Invitrogen Co., Ltd.).
[4] Swing was carried out in a slow manner while hMSC-BM were observed under a microscope until about 90% thereof were detached.
Centrifugation was carried out at 600×g and 25° C. for 5 minutes.
[7] The MSC medium as the supernatant was removed using an aspirator, and 4 mL/flask of PBS (from Invitrogen Co., Ltd.) was added, followed by suspending an hMSC-BM pellet (precipitate).
[8] 10 μL of the hMSC-BM suspension was taken; the number of the cells was measured using a cell counter; and PBS (from Invitrogen Co., Ltd.) was added thereto to 5×10^5 cells/mL, which was then cooled with ice.
[1] The hMSC-BM suspension prepared in the step [7] of the “1-1-3 Preparation of Mammalian Cell” described above was dispensed into a 15-mL conical centrifuge tube using […] (100 to 1,000 μL) and centrifuged at 600×g and 25° C. for 5 minutes.
[2] The supernatant after centrifugation treatment was aspirated/removed, and the resultant was suspended in each of the 11 solutions for cell transplantation and then preserved in a refrigerator (under conditions of 4° C.) for […]. To measure the cell survival rate before preservation, the supernatant after centrifugation treatment was aspirated/removed, and the resultant was then suspended in PBS (from Invitrogen Co., Ltd.), immediately followed by taking a portion (20 μL) of the suspension, mixing the portion with 20 μL of Trypan blue stain solution (from Gibco Co., Ltd.), and then measuring the total number of the cells and the number of dead cells using a cell counter under a microscope to evaluate the rate of living cells (see “P” in FIG. 1).
[3] After preserving hMSC-BM in the solution for cell transplantation for 14 days, stirring (5 times pipetting at a liquid volume of 500 μL) was gently performed in a state in which the end of a tip was inserted to a position visually at on the order of 5 mm from the bottom to make cells in a suspended state, and a portion (20 μL) of the suspension was taken into a 1.5-mL microtube, mixed with 20 μL of Trypan blue stain solution (from Gibco Co., Ltd.), and then measured for the total number of the cells and the number of dead cells using a cell counter under a microscope to evaluate the rate of living cells.

Compound	effect of saccharide used alone on cell death, FIG. 7
OC[C@H]1O[C@@](CO)(O[C@H]2O[C@H](CO)[C@@H](O)[C@H](O)[C@H]2O)[C@@H](O)[C@@H]1O [sucrose]	had not the effect of suppressing cell death
OC[C@H]1O[C@H](O[C@H]2[C@H](O)[C@@H](O)[C@H](O)O[C@@H]2CO)[C@H](O)[C@@H](O)[C@@H]1O [maltose]	had not the effect of suppressing cell death
OC[C@@H](O)[C@@H](O)[C@H](O)[C@@H](O)CO [sorbitol]	had not the effect of suppressing cell death
OC[C@H]1O[C@H](OC[C@H]2O[C@H](O[C@]3(CO)O[C@H](CO)[C@@H](O)[C@@H]3O)[C@H](O)[C@@H](O)[C@@H]2O)[C@H](O)[C@@H](O)[C@H]1O [raffinose]	had not the effect of suppressing cell death
OC[C@H]1O[C@@H](O[C@H]2[C@H](O)[C@@H](O)C(O)O[C@@H]2CO)[C@H](O)[C@@H](O)[C@H]1O (stereo partly drawn) [lactose]	had not the effect of suppressing cell death
OC[C@@H](O)[C@@H](O)[C@H](O)[C@H](O)CO [mannitol]	had not the effect of suppressing cell death
